Two molecules from US8728797B2, “Yeast membrane protein expression system and its application in drug screening” (priority 2001, dated 2014) can be followed below.

Values after ≈ are worked out from the molar mass of the structure shown.

Test [1] has as its system S. cerevisiae AD1-8 sec6-4. Put plainly: MIC microdilution test, sec6-4 host. The format is cell-based. To be noted: Saccharomyces cerevisiae, AD18SEC64, 30° C. On the procedure: (§1) The MICs of antifungal agents for S. cerevisiae cells were determined by a microdilution test based on the macrodilution reference method of the National Committee for Clinical Laboratory Standards. Cells (10 μl cell suspension, 2×10^5 cells/ml) were inoculated into 90 μl CSM-URA, buffered with 10 mM 2-(N-morpholino)ethanesulfonic acid (MES) and 18 mM N-2-hydroxyethylpiperazine-N′-2-ethanesulfonic acid (HEPES), pH 7.0 and containing 0.67% (w/v) yeast nitrogen base (YNB) in microtitre plate wells. For the uracil-requiring strain AD1-8u^− the medium was supplemented with 0.02% (w/v) uridine. The wells contained, in […], doubling dilutions of antifungal agents (final concentrations: fluconazole, 40-0.078 μg/ml; itraconazole and ketoconazole, 8-0.016 μg/ml). The microtitre plates were incubated at 30° C. for 48 h with shaking and then the growth of cells in individual wells (OD590) was measured with a microplate reader (EL 340, Bio-Tek, Winooski, Vt.). The MIC80 was the lowest concentration of drug that inhibited growth yield by at least 80% compared to a no-drug control.

In test [2] the test system is S. cerevisiae AD1-8 sec6-4/CDR1. Put plainly: MIC microdilution test, sec6-4 host with CDR1. The settings on record: Saccharomyces cerevisiae, 30° C. The format is cell-based. On the procedure:
as §1

Another test relates to AD-ERG11 (Erg11p). Briefly: MIC in liquid microdilution assay, AD-ERG11. The format is cell-based, S. cerevisiae. The settings on record: Saccharomyces cerevisiae. The method, then: as §1
Another test has as its system AD-pABC3. Put plainly: MIC in liquid microdilution assay, AD-pABC3 control. The format is cell-based, S. cerevisiae. The settings on record: Saccharomyces cerevisiae; AD-pABC3 negative control strain. The method, then:
as §1

Test [3] deals with initial construct in AD1-8u^− with barely detectable Cdr1p. Put plainly: MIC, initial defective Cdr1p construct. The format is cell-based, S. cerevisiae. The settings on record: Saccharomyces cerevisiae. The method, then: as §1
A further test deals with AD-PDR5 (Pdr5p). Briefly: Disk diffusion assay, AD-PDR5. Format: cell-based, S. cerevisiae. The settings on record: AD-pABC as negative control, 30° C., 48 h. The method, then:
The cells were spread on CSM-agar plates and exposed to the drugs or chemicals applied to filter disks and incubated at 30° C. for 48 h. The amounts of individual drugs are given in the Materials and Methods section of Example 3. Rhodamine 6G and rhodamine 123 were dissolved in ethanol and the other antifungals were dissolved in DMSO.
Drug susceptibility was measured using disk assays on CSM-URA plates (containing 1.5% w/v agar). Yeast cells (200 μl ml of 5×10^6 cells/ml) were spread on the plates. 10 μl of drug solution or solvent control were spotted onto sterile Whatman paper disks on the pre-spread plates. The following amounts (nmoles) of drugs were applied to individual disks: fluconazole, 633 (Pfizer Ltd., Sandwich, Kent, United Kingdom); itraconazole, 0.23 (Janssen); miconazole, 0.42 (Janssen); cycloheximide, 0.71 (Sigma); rhodamine 6G, 100 (Sigma, Penrose, Auckland, N. Z.); rhodamine 123, 125 (Sigma); cerulenin 4.5 (Sigma); 5-flucytosine 100 (Sigma); amphotericin B, 97 (E. R. Squibb & Sons, Princeton, N.J.); nystatin 65 (Sigma). Agar plates were incubated at 30° C. for 48 h or until clear growth inhibition zones were visible.

The target of test [4] is S. cerevisiae plasma membrane H^+-ATPase (Pma1p) (Saccharomyces cerevisiae, UniProt P05030). Briefly: Plasma membrane H+-ATPase inhibition. Format: biochemical. To be noted: read-out: 150 for plasma membrane H^+-ATPase.
Test [5] concerns AD124567 (Pdr5p-overexpressing). Briefly: Disk drug susceptibility assay of chemosensitisation to fluconazole. The format is cell-based, S. cerevisiae. The settings on record: 120 μg/ml fluconazole, 47 nanomole peptide on disk. On the procedure: (A) Checkerboard drug susceptibility assay of AD124567 in the presence of the indicated concentrations of fluconazole and KN20. (B) Disk drug susceptibility assay of AD124567. This assay was conducted, as described in Materials and methods for example 4, in the absence or presence of fluconazole (120 μg/ml), and in the presence of (1) KN0 (47 nanomole), (2) KN20 (47 nanomole) or (0) control amounts of DMSO applied to disks
Drug susceptibility was measured using disk assays on CSM-URA plates (containing 1.5% w/v agar). Plates were seeded with yeast cells suspended in top agar (5 ml, 10^5 cells/ml). For the uracil-dependent parental strain, agar was supplemented with 0.02% uridine. Five microliters of drug solution or solvent control were spotted onto sterile Whatman paper disks on the top agar. […]

Sequence of S. cerevisiae plasma membrane H^+-ATPase (Pma1p) (P05030 whole entry): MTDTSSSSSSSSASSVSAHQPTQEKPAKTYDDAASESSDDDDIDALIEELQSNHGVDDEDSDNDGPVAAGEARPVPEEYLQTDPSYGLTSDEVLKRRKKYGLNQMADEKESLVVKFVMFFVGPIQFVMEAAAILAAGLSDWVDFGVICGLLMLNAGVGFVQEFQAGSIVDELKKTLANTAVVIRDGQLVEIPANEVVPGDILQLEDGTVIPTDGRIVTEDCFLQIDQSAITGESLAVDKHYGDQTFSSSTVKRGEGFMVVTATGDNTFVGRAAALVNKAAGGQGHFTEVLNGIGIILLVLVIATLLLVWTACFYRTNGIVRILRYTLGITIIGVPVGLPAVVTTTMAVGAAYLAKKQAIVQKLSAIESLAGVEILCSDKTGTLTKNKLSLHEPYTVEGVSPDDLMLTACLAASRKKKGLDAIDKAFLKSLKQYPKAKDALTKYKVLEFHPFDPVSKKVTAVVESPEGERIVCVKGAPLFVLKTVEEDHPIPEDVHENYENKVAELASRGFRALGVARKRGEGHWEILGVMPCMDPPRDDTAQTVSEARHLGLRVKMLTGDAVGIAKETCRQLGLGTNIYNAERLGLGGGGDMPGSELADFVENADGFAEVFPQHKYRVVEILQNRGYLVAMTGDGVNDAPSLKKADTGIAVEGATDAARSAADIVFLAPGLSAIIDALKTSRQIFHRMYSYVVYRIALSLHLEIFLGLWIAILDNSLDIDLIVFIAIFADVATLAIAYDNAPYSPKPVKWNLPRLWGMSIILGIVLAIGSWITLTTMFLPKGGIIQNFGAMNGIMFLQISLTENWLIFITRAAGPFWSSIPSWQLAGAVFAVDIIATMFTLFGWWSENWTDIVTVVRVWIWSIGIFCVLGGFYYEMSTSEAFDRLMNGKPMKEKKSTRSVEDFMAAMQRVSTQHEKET

With `OC(Cn1cncn1)(Cn1cncn1)c1ccc(F)cc1F` [fluconazole], the MIC80 in test [1] is 0.5 µg/mL (≈ 1.63 µM); in test [2], 80 µg/mL (≈ 261 µM). Further, the MIC in the test on AD-ERG11 (Erg11p) was determined as 2 µg/mL (≈ 6.53 µM); against AD-pABC3, 0.5 µg/mL (≈ 1.63 µM); in test [3], 20 µg/mL (≈ 65.3 µM). Further, the “resistance/sensitivity in disk diffusion assay” value with AD-PDR5 (Pdr5p) is listed as “resistances”.

As for “D-octapeptide NH2-Asn-Trp-Trp-Lys-Val-Arg-Arg-Arg-CONH2 with a single 4-methoxy-2,3,6-trimethylbenzenesulphonyl (Mtr) substituent on one tryptophan sidechain; Pdr5p inhibitor [KN20]”, the IC50 in test [4] was 10 µM. Also, the “chemosensitisation to fluconazole in disk assay” value in test [5] was “chemosensitisation”.
